Where two headings read alike, the source gives them in different places. Each block holds one compound with its values, some of them ahead of it.
What was measured:
[1] = tested on: lung-(NCI-H292) and kidney-(MDCK) derived epithelial cells; test: Intracellular ROS (H2DCF-DA) in other epithelial cells; type: cell-based; settings: pre-treatment of epithelial cells, NAC 1 mM, FIG. 2B
Description: Cell Lines. Cells were obtained from the ATCC (A549, NCI-H292 and MDCK), or Cambrex Bio Science (Walkersville, Md.) (NHBE). Cells were maintained in humidified CO2 (5%) incubator and medium as recommended by the suppliers. Measurements of Reactive Oxygen Species. Epithelial cells (A549, NCI-H292, NHBE, and MDCK) were “loaded” with 50 μM H2DCF-DA (Molecular Probes, Eugene, Oreg.) at 37° C. for 15 minutes. After washing out excess probe, cells were treated with various allergenic extracts with or without NADPH (100 μM), NAC (1 mM), or NADPH oxidase inhibitors: quinacrine (500 μM) and diphenylene iodonium (100 μM). The change in fluorescence intensity was assessed in a FLx800 micro plate reader (Bio-Tek Instruments, Winooski, Vt.), or by flow cytometry (FACScan, Becton Dickinson, Franklin Lakes, N.J.) at 488 nm excitation and 530 nm emission. Each data point represents the mean fluorescence from three or more independent experiments, and is expressed ±s.e.m.

[2] = tested on: NADPH oxidase; test: NBT assay (reduction of NBT to formazan); type: biochemical, ragweed (Ambrosia artemisiifolia)
Description: NBT Assay. […]. Mixtures were then incubated for 15 min at 37° C., and the sedimented formazan was dissolved in methanol. The absorbance was determined at 530 nm in a spectrophotometer (DU 530, Beckman Instruments, Fullerton, Calif.).

[3] = tested on: normal human bronchial epithelial (NHBE) cells; test: Intracellular ROS (H2DCF-DA) in cultured NHBE cells; type: cell-based; settings: quinacrine 500 μM, diphenylene iodonium 100 μM, FIG. 2A
Description: Cell Lines. Cells were obtained from the ATCC (A549, NCI-H292 and MDCK), or Cambrex Bio Science (Walkersville, Md.) (NHBE). Cells were maintained in humidified CO2 (5%) incubator and medium as recommended by the suppliers.
Measurements of Reactive Oxygen Species. Epithelial cells (A549, NCI-H292, NHBE, and MDCK) were “loaded” with 50 μM H2DCF-DA (Molecular Probes, Eugene, Oreg.) at 37° C. for 15 minutes. After washing out excess probe, cells were treated with various allergenic extracts with or without NADPH (100 μM), NAC (1 mM), or NADPH oxidase inhibitors: quinacrine (500 μM) and diphenylene iodonium (100 μM). The change in fluorescence intensity was assessed in a FLx800 micro plate reader (Bio-Tek Instruments, Winooski, Vt.), or by flow cytometry (FACScan, Becton Dickinson, Franklin Lakes, N.J.) at 488 nm excitation and 530 nm emission. Each data point represents the mean fluorescence from three or more independent experiments, and is expressed ±s.e.m.

[4] = tested on: superoxide anions (O2.^−); test: Cytochrome c assay for detecting O2.− generation; type: biochemical, ragweed (Ambrosia artemisiifolia); settings: SOD 50 U/ml added to pRWE^NOX+NADPH+Cyt c
Description: Cytochrome c Assay for Detecting O2.^− Generation. The method described by Messner and Imaly was used. The assay was carried out in PBS with 10 μg pRWE and 10 μM oxidized cytochrome c (Sigma-Aldrich) in the reaction mixture. The reactions were started by adding 100 μM NADPH, and the increase in A550 nm was recorded for 5 min. Saturating amounts of SOD 9(50 U/ml, Sigma-Aldrich) were used in a reference reaction to determine any such O2.^− independent reduction of cytochrome c by the sample.

Compound: CC(=O)N[C@@H](CS)C(=O)O [N-acetyl-L-cysteine]
effect on RWE-induced increase in intracellular ROS levels [1]: inhibited | effect on RWE-induced increase in intracellular ROS levels ([1]; listed as NAC): inhibits

Compound: [N-]=[N+]=[N-].[Na+] [azide, sodium azide]
NBT reducing activity of pRWE^NOX in presence of the agent [2]: resistant

Compound: c1ccc2c(c1)[I+]c1ccccc1-2 [diphenyleneiodonium]
effect on extract-induced elevation in ROS levels [3]: inhibited | NBT reducing activity of pRWE^NOX in presence of the agent ([2]; pRWE^NOX, FIG. 1A): inhibited

NBT reducing activity of pRWE^NOX in presence of the agent ([2]; pRWE^NOX, FIG. 1A): inhibited
Compound: CCN(CC)CCCC(C)Nc1c2ccc(Cl)cc2nc2ccc(OC)cc12 (centres unmarked) [quinacrine]
effect on extract-induced elevation in ROS levels [3]: inhibited

Compound: superoxide dismutase
effect on the pRWE^NOX-induced increase in absorbance at 550 nm [4]: abrogated

From patent US20060198904A1, “Methods for inhibiting allergic inflammation and other responses initiated by pollens, molds, and other non-animal derived allergens” (priority 2002, published 2006)
